Experimental findings from patent US20250388553A1 (Incyte Corporation, priority 2018, published 2025) are described below.

Structures can show the parent of a compound that is named as a salt. Where two headings read alike, the source gives them in different places. Some results are limits rather than exact numbers.

Test [1] deals with PI3Kγ (p110γ) Recombinant Human Protein (Homo sapiens (Human), UniProt P48736). Put plainly: PI3K-γ scintillation proximity assay. Type of test: biochemical. Particulars: scintillation proximity assay, recombinant human p110γ.
Test [2] deals with PI3Kδ (p1106/p85a) Recombinant Human Protein (Homo sapiens (Human), UniProt O00329). Put plainly: PI3Kδ scintillation proximity assay. The class given is biochemical. Particulars: scintillation proximity assay, recombinant human PI3Kδ.
Test [3] relates to Phosphorylated Ribosomal Protein S6 (RPS6) in THP-1 cells. Put plainly: THP-1 RPS6 ELISA assay. Type of test: cell-based, Human. The conditions noted are these: THP-1 cells, 10 nM MCP-1, phospho-RPS6 ELISA, read-out: PI3Kγ_THP1_RPS6_ELISA IC50. The text has this: Example A. THP-1 RPS6 ELISA Assay
To measure the Phosphorylated Ribosomal Protein S6 (RPS6) in cell lysates, THP-1 cells (Human Acute Monocytic Leukemia) are purchased from ATCC (Manassas, VA) and maintained in RPMI with 10% FBS (Gibco/Life Technologies, Carlsbad, CA). For the assay, THP-1 cells are serum starved overnight in RPMI, then plated in RPMI (2×10^5 cells/well in […]) into 96-well flat-bottom tissue culture treated plates (Corning, Corning, NY), in the presence or absence of a concentration range of test compounds. Covered plates are incubated for 2 hours at 37° C., 5% CO2 then treated with or without 10 nM MCP-1(MYBioSource, San Diego, CA) for 15 minutes at 37° C., 5% CO2. Plates are centrifuged at 1600 RPM and supernatants are removed. Cells are lysed in Lysis Buffer (Cell Signaling, Danvers, MA) with Protease Inhibitor (Calbiochem/EMD, Germany), PMSF (Sigma, St Louis MO), HALTS (Thermo Fisher, Rockford, IL) for 30 min on wet ice. Cell lysates are frozen at −80° C. before testing. The lysates are tested in the Human/Mouse/Rat Phospho-RPS6 ELISA (R&D Systems, Inc. Minn, MN). The plate is measured using a microplate reader (SpectraMax M5—Molecular Devices, LLC Sunnyvale, CA) set to 450 nm with a wavelength correction of 540. IC50 determination is performed by fitting the curve of inhibitor percent inhibition versus the log of the inhibitor concentration using the GraphPad Prism 5.0 software.
The compounds of the Examples were tested in the assays described in Examples A, B and C and found to have the IC50s are shown in Tables A1, A2, A3 and A4.

Chain of PI3Kδ (p1106/p85a) Recombinant Human Protein (O00329 whole entry): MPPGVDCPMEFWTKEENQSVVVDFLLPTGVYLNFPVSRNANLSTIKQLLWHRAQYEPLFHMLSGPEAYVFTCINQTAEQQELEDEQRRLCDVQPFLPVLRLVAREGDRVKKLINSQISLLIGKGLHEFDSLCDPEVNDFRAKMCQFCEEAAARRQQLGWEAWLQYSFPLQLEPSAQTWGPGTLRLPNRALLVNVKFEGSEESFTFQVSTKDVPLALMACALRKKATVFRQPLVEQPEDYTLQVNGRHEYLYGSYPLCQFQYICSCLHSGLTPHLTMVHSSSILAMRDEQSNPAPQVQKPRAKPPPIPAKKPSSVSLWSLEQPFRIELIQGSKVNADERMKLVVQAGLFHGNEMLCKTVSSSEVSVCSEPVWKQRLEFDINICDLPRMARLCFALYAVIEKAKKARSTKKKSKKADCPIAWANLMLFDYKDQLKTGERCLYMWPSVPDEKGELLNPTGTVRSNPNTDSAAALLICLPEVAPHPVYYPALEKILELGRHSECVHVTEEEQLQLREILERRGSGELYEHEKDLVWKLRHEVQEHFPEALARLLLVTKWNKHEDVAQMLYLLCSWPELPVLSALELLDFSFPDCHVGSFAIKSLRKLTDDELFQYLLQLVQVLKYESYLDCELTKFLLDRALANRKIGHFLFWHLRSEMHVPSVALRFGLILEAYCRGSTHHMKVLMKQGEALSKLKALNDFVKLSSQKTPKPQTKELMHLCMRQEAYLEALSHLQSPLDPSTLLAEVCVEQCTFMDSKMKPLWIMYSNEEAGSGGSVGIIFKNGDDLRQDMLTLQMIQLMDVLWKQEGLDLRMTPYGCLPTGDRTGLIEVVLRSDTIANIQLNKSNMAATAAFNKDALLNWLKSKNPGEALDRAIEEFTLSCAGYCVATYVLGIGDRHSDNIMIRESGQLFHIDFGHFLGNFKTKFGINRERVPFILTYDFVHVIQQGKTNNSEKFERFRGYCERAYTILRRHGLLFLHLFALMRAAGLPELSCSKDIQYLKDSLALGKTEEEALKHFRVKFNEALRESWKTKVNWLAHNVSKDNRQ
Chain of PI3Kδ (p1106/p85a) Recombinant Human Protein (P27986 whole entry partner): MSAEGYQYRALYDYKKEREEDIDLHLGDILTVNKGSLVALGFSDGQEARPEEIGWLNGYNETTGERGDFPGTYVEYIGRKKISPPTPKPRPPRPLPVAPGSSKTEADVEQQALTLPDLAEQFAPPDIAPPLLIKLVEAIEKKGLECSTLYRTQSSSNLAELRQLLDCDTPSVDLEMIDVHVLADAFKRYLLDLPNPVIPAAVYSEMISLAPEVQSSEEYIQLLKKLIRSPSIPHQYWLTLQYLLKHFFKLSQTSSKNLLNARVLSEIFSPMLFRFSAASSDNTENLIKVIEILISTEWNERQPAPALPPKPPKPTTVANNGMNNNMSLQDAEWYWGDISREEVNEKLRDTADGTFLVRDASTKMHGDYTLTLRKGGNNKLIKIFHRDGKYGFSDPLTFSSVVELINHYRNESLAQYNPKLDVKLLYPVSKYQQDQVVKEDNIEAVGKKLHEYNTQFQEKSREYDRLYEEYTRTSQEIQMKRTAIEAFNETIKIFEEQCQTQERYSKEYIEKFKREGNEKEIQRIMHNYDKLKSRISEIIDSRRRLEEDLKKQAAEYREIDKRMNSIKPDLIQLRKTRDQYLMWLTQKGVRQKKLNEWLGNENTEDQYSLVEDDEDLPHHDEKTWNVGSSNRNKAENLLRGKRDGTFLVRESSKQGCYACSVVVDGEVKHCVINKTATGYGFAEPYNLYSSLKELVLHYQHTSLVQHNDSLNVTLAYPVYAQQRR
Chain of PI3Kγ (p110γ) Recombinant Human Protein (P48736 whole entry): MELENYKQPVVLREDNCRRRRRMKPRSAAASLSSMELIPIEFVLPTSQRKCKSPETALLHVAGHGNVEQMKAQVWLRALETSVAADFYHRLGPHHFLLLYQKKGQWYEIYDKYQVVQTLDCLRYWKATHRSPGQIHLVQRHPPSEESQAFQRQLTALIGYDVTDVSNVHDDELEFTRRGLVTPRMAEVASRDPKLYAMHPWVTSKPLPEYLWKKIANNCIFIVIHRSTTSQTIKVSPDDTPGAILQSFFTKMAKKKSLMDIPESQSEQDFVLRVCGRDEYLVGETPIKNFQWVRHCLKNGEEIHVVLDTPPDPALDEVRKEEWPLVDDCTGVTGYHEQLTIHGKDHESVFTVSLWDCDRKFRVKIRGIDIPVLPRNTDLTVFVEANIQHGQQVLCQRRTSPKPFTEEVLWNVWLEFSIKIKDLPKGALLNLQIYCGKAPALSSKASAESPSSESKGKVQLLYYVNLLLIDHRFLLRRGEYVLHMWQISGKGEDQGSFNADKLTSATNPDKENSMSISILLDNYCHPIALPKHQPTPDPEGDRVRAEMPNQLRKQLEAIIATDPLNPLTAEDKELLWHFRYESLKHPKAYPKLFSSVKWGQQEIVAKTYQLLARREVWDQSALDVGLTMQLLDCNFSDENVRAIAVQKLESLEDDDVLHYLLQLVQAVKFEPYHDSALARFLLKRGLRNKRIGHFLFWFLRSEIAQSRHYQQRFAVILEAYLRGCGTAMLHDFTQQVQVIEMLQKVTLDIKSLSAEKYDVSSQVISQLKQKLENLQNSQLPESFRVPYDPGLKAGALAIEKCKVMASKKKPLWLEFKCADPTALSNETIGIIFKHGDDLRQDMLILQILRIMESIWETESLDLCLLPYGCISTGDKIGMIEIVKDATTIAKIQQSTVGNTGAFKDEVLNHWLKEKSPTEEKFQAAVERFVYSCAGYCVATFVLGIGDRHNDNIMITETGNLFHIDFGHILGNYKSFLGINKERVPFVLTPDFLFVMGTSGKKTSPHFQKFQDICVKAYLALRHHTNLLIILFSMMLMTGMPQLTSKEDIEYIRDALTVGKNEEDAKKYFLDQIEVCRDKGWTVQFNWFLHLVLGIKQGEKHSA

On to `Cc1ccc(C(O)(C(N)=O)C(F)(F)F)cc1-c1cnc(N)c(-c2cncnc2)n1` (stereo not drawn) [Example 81, 2-(3-(5-amino-6-(pyrimidin-5-yl)pyrazin-2-yl)-4-methylphenyl)-3,3,3-trifluoro-2-hydroxypropanamide trifluoroacetate], for which the IC50 was < 100 nM in test [1] (Table A3); 100 to 500 nM in test [2] (Table A3); 100 to 500 nM in test [3] (Homo sapiens, Table A3).
Take `Cc1ccc(C(O)(C(N)=O)C(F)(F)F)cc1-c1cnc(N)c(-c2ccnc(CO)c2)n1` (stereo not drawn) [Example 85, 2-(3-(5-amino-6-(2-(hydroxymethyl)pyridin-4-yl)pyrazin-2-yl)-4-methylphenyl)-3,3,3-trifluoro-2-hydroxypropanamide bistrifluoroacetate]: the 50% inhibitory concentration (IC50) is < 100 nM in test [1] (Table A3); < 100 nM in test [2] (Table A3); 100 to 500 nM in test [3] (Homo sapiens, Table A3).
For the compound `Cc1ccc(C(O)(C(N)=O)C(F)(F)F)cc1-c1cnc(N)c(-c2cccc(C(C)C)c2)n1` (stereo not drawn) [Example 90, 2-(3-(5-amino-6-(3-isopropylplienyl)pyrazin-2-yl)-4-methylphenyl)-3?3,3-trifluoro-2-hydroxypropanamide trifluoroacetate], the IC50 in test [1] (Table A3) was < 100 nM; in test [2] (Table A3), 100 to 500 nM; in test [3] (Table A3) it was 100 to 500 nM.
On to `Cc1ccc(C(O)(C(N)=O)C(F)(F)F)cc1-c1cnc(N)c(-c2cnnn2C)n1` (stereo not drawn) [Example 74, 2-(3-(5-amino-6-(1-methyl-1H-1,2,3-triazol-5-yl)pyrazin-2-yl)-4-methylphenyl)-3,3,3-trifluoro-2-hydroxypropanamide trifluoroacetate], for which the half-maximal inhibitory concentration (IC50) was < 100 nM in test [1] (Table A3); < 100 nM in test [2] (Table A3); < 100 nM in test [3] (Homo sapiens, Table A3).
For `Cc1ccc(C(O)(C(N)=O)C(F)F)cc1-c1cnc(N)c(C(=O)NC(C)C)n1` (stereo not drawn) [Example 31], the IC50 in test [1] (Table A1), in test [2] (Table A1) and in test [3] (Table A1) was < 100 nM throughout.
Take `Cc1ccc(C(O)(C(N)=O)C(F)(F)F)cc1-c1cnc(N)c(C#Cc2cncn2C)n1` (stereo not drawn) [Example 53, 2-(3-(5-amino-6-((1-methyl-1H-imidazol-5-yl)ethynyl)pyrazin-2-yl)-4-methylphenyl)-3,3,3-trifluoro-2-hydroxypropanamide]: the figures for the IC50 in test [1] (Table A2), in test [2] (Table A2) and in test [3] (Table A2) were < 100 nM, < 100 nM and 100 to 500 nM, respectively.
As for `Cc1ccc(C(O)(C(N)=O)C(F)(F)F)cc1-c1cnc(N)c(-c2ccc(B(O)O)cc2)n1` (stereo not drawn) [Example 97, (4-(3-Amino-6-(5-(3-amino-1,1,1-trifluoro-2-hydroxy-3-oxopropan-2-yl)-2-methylphenyl)pyrazin-2-yl)phenyl)boronic Acid], the IC50 in test [1] (Table A3) was < 100 nM; in test [2] (Table A3), < 100 nM; in test [3] (Homo sapiens, Table A3) it was 100 to 500 nM.
Consider `Cc1ccc(C(O)(C(N)=O)C(F)(F)F)cc1-c1cnc(N)c(C(=O)N[C@H]2CC[C@H](O)CC2)n1` (stereo partly drawn) [Example 3, 3-amino-6-(5-(3-amino-1,1,1-trifluoro-2-hydroxy-3-oxopropan-2-yl)-2-methylphenyl)-N-((1r,4r)-4-hydroxycyclohexyl)pyrazine-2-carboxamide trifluoroacetate], for which the IC50 in test [1] (Table A1), in test [2] (Table A1) and in test [3] (Table A1) was < 100 nM in each case.
For the compound `Cc1ccc(C(O)(C(N)=O)C(F)(F)F)cc1-c1cnc(N)c(-c2cnn(C(C)(C)C#N)c2)n1` (stereo not drawn) [Example 76, 2-(3-(5-amino-6-(1-(2-cyanopropan-2-yl)-1H-pyrazol-4-yl)pyrazin-2-yl)-4-methylphenyl)-3,3,3-trifluoro-2-hydroxypropanamide trifluoroacetate], the concentration for half-maximal inhibition (IC50) in test [1] (Table A3) was < 100 nM; in test [2] (Table A3), < 100 nM; in test [3] (Homo sapiens, Table A3), < 100 nM.
With `Cc1ccc(C(O)(CNC(=O)CF)C(F)(F)F)cc1-c1cnc(N)c(C(=O)NC(C)C)n1` (stereo not drawn) [Example 40, 3-Amino-N-isopropyl-6-(2-methyl-5-(1,1,1-trifluoro-3-(2-fluoroacetamido)-2-hydroxypropan-2-yl)phenyl)pyrazine-2-carboxamide trifluoroacetate], the half-inhibitory concentration (IC50) in test [1] (Table A1) was < 100 nM; in test [2] (Table A1) it was < 100 nM; in test [3] (Homo sapiens, Table A1), 100 to 500 nM.
`CO[C@H]1CC[C@H](NC(=O)c2nc(-c3cc(C(O)(C(N)=O)C(F)(F)F)ccc3C)cnc2N)CC1` (stereo partly drawn) [Example 22, 3-amino-6-(5-(3-amino-1,1,1-trifluoro-2-hydroxy-3-oxopropan-2-yl)-2-methylphenyl)-N-((1r,4r)-4-methoxycyclohexyl)pyrazine-2-carboxamide trifluoroacetate]: the IC50 in test [1] (Table A1), in test [2] (Table A1) and in test [3] (Table A1) was < 100 nM in each case.
`COCCn1cc(-c2nc(-c3cc(C(O)(C(N)=O)C(F)(F)F)ccc3C)cnc2N)cn1` (stereo not drawn) [Example 79, 2-(3-(5-amino-6-(1-(2-methoxyethyl)-1H-pyrazol-4-yl)pyrazin-2-yl)-4-methylphenyl)-3,3,3-trifluoro-2-hydroxypropanamide trifluoroacetate]: the IC50 in test [1] (Table A3) is < 100 nM; in test [2] (Table A3), < 100 nM; in test [3] (Homo sapiens, Table A3), < 100 nM.
As for `Cc1ccc(C(O)(C(N)=O)C(F)(F)F)cc1-c1cnc(N)c(-c2cnn(CC(F)(F)F)c2)n1` (stereo not drawn) [Example 75, 2-(3-(5-amino-6-(1-(2,2,2-trifluoroethyl)-1H-pyrazol-4-yl)pyrazin-2-yl)-4-methylphenyl)-3,3,3-trifluoro-2-hydroxypropanamide trifluoroacetate], the IC50 in test [1] (Table A3) was < 100 nM; in test [2] (Table A3), < 100 nM; in test [3] (Homo sapiens, Table A3) it was < 100 nM.
For the compound `CNC(=O)c1ccc(-c2nc(-c3cc(C(O)(C(N)=O)C(F)(F)F)ccc3C)cnc2N)cc1` (stereo not drawn) [Example 89, 4-(3-amino-6-(5-(3-amino-1,1,1-trifluoro-2-hydroxy-3-oxopropan-2-yl)-2-methylphenyl)pyrazin-2-yl)-N-methylbenzamide trifluoroacetate], the IC50 in test [1] (Table A3) is < 100 nM; in test [2] (Table A3), < 100 nM; in test [3] (Homo sapiens, Table A3), 100 to 500 nM.
For the compound `Cc1ccc(C(O)(C(N)=O)C(F)(F)F)cc1-c1cnc(N)c(-c2ccc(CO)cc2)n1` (stereo not drawn) [Example 88, 2-(3-(5-amino-6-(4-(hydroxymethyl)phenyl)pyrazin-2-yl)-4-methylphenyl)-3,3,3-trifluoro-2-hydroxypropanamide trifluoroacetate], the 50% inhibitory concentration (IC50) in test [1] (Table A3) was < 100 nM; in test [2] (Table A3), < 100 nM; in test [3] (Homo sapiens, Table A3), 100 to 500 nM.
As for `CCOc1ccccc1N1CCN(c2nc(-c3cc(C(O)(C(N)=O)C(F)(F)F)ccc3C)cnc2N)CC1` (stereo not drawn) [Example 129, 2-(3-(5-amino-6-(4-(2-ethoxyphenyl)piperazin-1-yl)pyrazin-2-yl)-4-methylphenyl)-3,3,3-trifluoro-2-hydroxypropanamide trifluoroacetate], the IC50 in test [1] (Table A4) is < 100 nM; in test [2] (Table A4), 100 to 500 nM; in test [3] (Homo sapiens, Table A4) it was 500 to 1000 nM.
For the compound `Cc1ccc(C(O)(C(N)=O)C(F)(F)F)cc1-c1cnc(N)c(-c2ccc(C3CC3)cc2)n1` (stereo not drawn) [Example 92, 2-(3-(5-amino-6-(4-cyclopropylphenyl)pyrazin-2-yl)-4-methylphenyl)-3,3,3-trifluoro-2-hydroxypropanamide trifluoroacetate], the half-inhibitory concentration (IC50) in test [1] (Table A3) was < 100 nM; in test [2] (Table A3), 100 to 500 nM; in test [3] (Homo sapiens, Table A3), 100 to 500 nM.
In the case of `Cc1ccc(C(O)(C(N)=O)C(F)(F)F)cc1-c1cnc(N)c(C#Cc2ccn[nH]2)n1` (stereo not drawn) [Example 52, 2-(3-(6-((1H-pyrazol-5-yl)ethynyl)-5-aminopyrazin-2-yl)-4-methylphenyl)-3,3,3-trifluoro-2-hydroxypropanamide], the IC50 was < 100 nM in test [1] (Table A2); < 100 nM in test [2] (Table A2); 100 to 500 nM in test [3] (Homo sapiens, Table A2).
